In ChEMBL document CHEMBL1150664, “New bioactive peroxides from marine sponges of the family plakiniidae” (2002) one finds MIC and IC90 data, which are given here for five molecules.

As usually defined, the MIC is the least concentration at which growth counts as inhibited. Low values mean a more susceptible organism, high ones a less susceptible organism. A word on the IC90: it is the concentration at which the effect reaches the 90% level. Read a high IC90 as weaker potency.

Each structure is given as a SMILES string. Values after ≈ are worked out from the molar mass of the structure shown.

The first experiment concerns Candida albicans. Put plainly: Antimicrobial activity against Candida albicans by standard microdilution broth method. It counts as functional. (Broth dilution looks for growth in wells or tubes with falling amounts of substance.)
`CC(CCCCCCC/C=C/C=C/c1ccccc1)C[C@]1(C)C[C@@](C)(CC(=O)O)OO1` (relative stereo): it took 1.6 µg/mL (≈ 3.73 µM) to inhibit growth (MIC). The same measure, in the same setting: the value for `Nc1nc(=O)[nH]cc1F` [FLUCYTOSINE] was 1.62 µg/mL (≈ 12.5 µM); that for `CC/C=C/C(CC)C/C=C/[C@@]1(CC)C[C@H](CC)[C@@H](CC(=O)O)OO1` (stereo partly specified) was 5 µg/mL (≈ 14.8 µM). On the same count and under the same terms, the value for `CC(CCCCCCC/C=C/C=C/c1ccccc1)C[C@]1(C)C[C@](C)(CC(=O)O)OO1` (relative stereo) was 1.6 µg/mL (≈ 3.73 µM).

The subject of a further experiment is Aspergillus fumigatus. Put plainly: Antimicrobial activity against Aspergillus fumigatus by standard microdilution broth method. It counts as functional.
In turn, `CC/C=C/C(CC)C/C=C/[C@@]1(CC)C[C@H](CC)[C@@H](CC(=O)O)OO1` (stereo partly specified) displayed an IC90 of 5.6 µg/mL (≈ 16.5 µM). The same measure, in the same setting: the value for `C[C@@H]1[C@H](O)[C@@H](C)/C=C/C=C/C=C/C=C/C=C/C=C/C=C/[C@H](O[C@@H]2O[C@H](C)[C@@H](O)[C@H](N)[C@@H]2O)C[C@@H]2O[C@](O)(C[C@@H](O)C[C@@H](O)[C@H](O)CC[C@@H](O)C[C@@H](O)CC(=O)O[C@H]1C)C[C@H](O)[C@H]2C(=O)O` [AMPHOTERICIN B] was 1 µg/mL (≈ 1.08 µM).
